Tests used:
Pt1 = assay: Cell viability (ViaLight Plus), primary OC cells Pt1; assay type: cell-based, human; details: Gal-3C single agent, escalating concentrations (0, 2, 10, 20 μg/mL), 48 hours, on average
Description: (§1) Cells. The OC cell lines used in this study were SKOV-3 and ID8 (American Type Culture Collection, Manassas, Va., USA), while primary epithelial OC cells from two patients were obtained with approval from the Texas Tech University HSC IRB (L-Micro Study, IRB NUMBER: L04-095), and the patients' written informed consent. All OC cells were cultured in RPMI-1640 medium supplemented with 10% fetal bovine serum (FBS, Thermo Scientific, Rockford, Ill., USA) in 5% CO2 atmosphere at 37° C. Human Umbilical Vein Endothelial Cells (HUVEC, American Type Culture Collection) were maintained in EGM-2 medium supplemented with endothelial cells growth factors (Lonza, Houston, Tex., USA) and were used within 10 passages.
(§2) Cell viability. Cell proliferation was assessed with a ViaLight Plus Cell Proliferation and Cytotoxicity BioAssay Kit (Lonza, Walkersville, Md., USA) according to the directions of the manufacturer. […] Luminescence was measured with a 1-s integrated setting in a Berthold luminometer.
(§3) Administration of Gal-3C reduced OC cell viability when used as a single agent and improved the effects of paclitaxel. OC cells were treated with escalating concentrations of Gal-3C (0, 2, 10, and 20 μg/mL) for 48 hours, then viability was measure as described in methods, and expressed as percentage of control cells (treated with equal amounts of drug vehicle). […]

[1] = compared with available standard treatments; cited from earlier work
[2] = tested on: OC cells (SKOV-3, ID8, Pt1, Pt2); assay: Cell viability, statements for all OC cells tested; assay type: cell-based; details: 48 hours
Description: (§4) Cell viability. Cell proliferation was assessed with a ViaLight Plus Cell Proliferation and Cytotoxicity BioAssay Kit (Lonza, Walkersville, Md., USA) according to the directions of the manufacturer. In brief, OC cells were seeded in 100 μL RPMI-1640 with 10% heat-inactivated FBS in 96-well plates (8×10^3/well). Each drugs/drug combination was tested in triplicate. Luminescence was measured with a 1-s integrated setting in a Berthold luminometer.
(§5) Administration of Gal-3C reduced OC cell viability when used as a single agent and improved the effects of paclitaxel. OC cells were treated with escalating concentrations of Gal-3C (0, 2, 10, and 20 μg/mL) for 48 hours, then viability was measure as described in methods, and expressed as percentage of control cells (treated with equal amounts of drug vehicle). […] On average, viability was reduced by 25% in SKOV-3, 50% in ID8, 29% in Pt1 and 57% in Pt2 cells. Then, in a separate set of experiments, OC cells were treated for 48 hours with 10 μg/mL Gal-3C, 8 nM paclitaxel, or combined 10 μg/mL Gal-3C+8 nM paclitaxel.

[3] = tested on: αvβ3 integrin clusters in HUVEC cells; assay: αvβ3 integrin clustering assay; assay type: cell-based, human; details: conditioned medium of OC cells pre-treated 48 h; 10 μg/mL Gal-3C, 8 nM paclitaxel or combined
Description: αvβ3 integrin clustering assay. HUVEC cells were cultured in 8-chamber slides coated with 10 μg/mL fibronectin (10^4 cells/chamber). Cells were incubated with conditioned medium of SKOV-3 cells (obtained as described for the tubule formation assay) for 20 minutes to allow integrin clustering, then fixed with 4% WN buffered (pH=7.5) paraformaldehyde in PBS (10 minutes at 37° C.). Then, cells were incubated with 10 μg/mL anti-integrin αvβ3 antibody (R&D Systems, 1:200 dilution in PBS) for 1 hour at RT, followed by two washing steps in PBS (5 minutes each) prior to the addition of FITC-anti-mouse IgG (1:1000 dilution in PBS) for 1 hour at RT. Microphotographs of randomly selected fields were acquired at 60× magnification by confocal microscopy (Leica TCS-SL Confocal Spectral Microscope System, Leica Microsystems, Buffalo Grove, Ill., USA).
Gal-3C blocked OC cell angiogenic potential and αvβ3 integrin clustering. To study the effects of Gal-3C on OC cells ability to induce the formation of new vessels, an in vitro tubule formation assay was carried out using HUVEC cells stimulated with the conditioned media (20% V/V) of OC cells pre-treated for 48 hours with 10 μg/mL Gal-3C, 8 nM paclitaxel, or a combination of both treatments. […] The amount of branching points was also calculated through the Wimasis WimTube software, as described hereinabove. […]

SKOV-3 = assay: Cell viability (ViaLight Plus), SKOV-3; assay type: cell-based, human; details: Gal-3C single agent, escalating concentrations (0, 2, 10, 20 μg/mL), 48 hours, on average
Description: as §4, §5

Pt2 = assay: Cell viability (ViaLight Plus), primary OC cells Pt2; assay type: cell-based, human; details: Gal-3C single agent, escalating concentrations (0, 2, 10, 20 μg/mL), 48 hours, on average
Description: as §1, §2, §3

OC cells [4] = assay: Transwell migration assay of OC cells; assay type: cell-based; details: 48-hour treatment; 10 μg/mL Gal-3C, 8 nM paclitaxel or combined; compared with controls
Description: Migration assays. 4×10^5 cells were plated in 100 μL serum-free culture medium (supplemented with drugs or vehicle) in the top chambers of 24-well Transwell™ polycarbonate inserts (Corning Costar, NY, USA) with 8-μm pores. Complete culture medium (600 μL) was added to the bottom chamber. After incubation for 4 hours, cells on lower side of the filter were fixed, stained and counted as described (25).
After 48-hour treatment with 10 μg/mL Gal-3C, 8 nM paclitaxel, or combined drugs, OC cells were tested for in vitro invasivity and motility abilities as described in methods.

ID8 = assay: Cell viability (ViaLight Plus), ID8; assay type: cell-based, murine; details: Gal-3C single agent, escalating concentrations (0, 2, 10, 20 μg/mL), 48 hours, on average
Description: as §4, §5

Akt/NF-κB pathway = assay: Western blotting of Akt/NF-κB pathway activation in OC cells; assay type: cell-based; details: 48 hours, Western blot; for levels of phosphorylated, active NF-κB (P-p65) / phospho-Akt (P-Akt) levels: 10 μg/mL Gal-3C, 8 nM paclitaxel or combined
Description: Western blotting. Cells were harvested and washed twice with PBS, then lysed (25), and resolved on 12% Bis-Tris (Bis(2-hydroxyethyl)-amino-tris(hydroxymethyl)-methane) poly-acrylamide gel (Invitrogen) and then electrotransferred onto 0.2 μm nitrocellulose membrane. After rinsing in PBS-Tween, the blot was incubated in protein-free blocking buffer (Pierce/Thermo) at 4° C. overnight, then incubated with the indicated primary antibodies (Cell Signaling Technology, Inc., Danvers, Mass. USA) diluted in blocking buffer for 2 hours at RT. After washing 5 times with PBS-Tween, the blot was incubated with matched horseradish peroxidase-coupled secondary antibodies, and developed with the ECL Western blotting Detection System from Perkin-Elmer Life Sciences (Boston, Mass., USA).
Gal-3C reversed the effect of paclitaxel on NF-κB activation by reducing the phosphorylation of Akt. OC cells treated for 48 hours with 10 μg/mL Gal-3C, 8 nM paclitaxel, or combined treatments as described above, then protein extracts were analyzed by Western blotting. […] Increased or decreased levels of p65 phosphorylation (P-p65) were in accordance with higher or lower levels (respectively) of IKB and IKKα/β phosphorylation, as expected. […] To rule out the possibility that alterations in the phosphorylation of p-65, IKB, IKK, or Akt were the results of modulations in the expression levels, total p-65, IKB, IKK, or Akt (phosphorylated and not-phosphorylated forms) were also examined (FIGS. 3A and 3B).

HUVEC cells [5] = assay: Vascular endothelial cell (HUVEC) Transwell migration assay with OC conditioned medium; assay type: cell-based, human; details: for HUVEC migration induced by conditioned media of treated OC cells: conditioned media from SKOV-3 cells treated 48 hours, 10 μg/mL Gal-3C or 8 nM paclitaxel, compared with controls; for HUVEC chemotaxis, direct effect of residual drugs: control OC-conditioned medium supplemented with 2 μg/mL Gal-3C, 1.6 nM paclitaxel, or combined, results not shown
Description: The experiments were run in triplicate and the results are expressed as the mean number of migrated cells in the presence of different stimuli.
After 48-hour treatments (10 μg/mL Gal-3C, 8 nM paclitaxel, or combined drugs), the conditioned media form SKOV-3 cells was harvested and tested for its ability to induce migration of HUVEC cells in a Transwell assay. […] To test if residual drugs in the conditioned media could inhibit HUVEC migration, a migration assay was performed in the presence of control OC-conditioned medium supplemented with 20% of drug amounts (2 μg/mL Gal-3C, 1.6 nM paclitaxel, and combined drugs).

OC cells [6] = assay: Matrigel invasion assay; assay type: cell-based; details: 48-hour treatment; 10 μg/mL Gal-3C, 8 nM paclitaxel or combined; compared with controls
Description: Invasion assay. OC invasion potential was measured as described (25), using Transwell™ polycarbonate inserts (5-μm pore size).
Gal-3C reduced OC invasion and migration alone and in combination with paclitaxel. After 48-hour treatment with 10 μg/mL Gal-3C, 8 nM paclitaxel, or combined drugs, OC cells were tested for in vitro invasivity and motility abilities as described in methods.

HUVEC cells [7] = assay: In vitro tubule formation (angiogenesis) assay with OC conditioned media; assay type: cell-based, human; details: for formation of vessel-like structures by HUVEC cells: conditioned media (20% V/V) of OC cells pre-treated 48 hours, 10 μg/mL Gal-3C, 8 nM paclitaxel or combination; for average number of branching points: conditioned media of 48-h treated OC cells, all tested OC cells, compared with vehicle-treated cells; for tubule formation, direct effect of drugs: conditioned media of untreated OC cells (20% V/V) supplemented with 10 μg/mL Gal-3C, 8 nM paclitaxel or both, results not shown
Description: Tubule formation assay. A capillary tubule formation assay was performed as previously described (25). Briefly, growth factor-reduced Matrigel™ (50 μL/well; Becton Dickinson) was added with 30 ng/mL recombinant basic fibroblastic growth factor (bFGF; R&D Systems) and incubated for 1 hour at 37° C. 2-h serum-starved HUVEC cells (5,000), were resuspended in 200 μL serum-free EGM-2 medium (Lonza) supplemented with 20% V/V conditioned medium from differently treated OC cells (obtained after 48-h treatment of OC cells with 10 μg/mL Gal-3C, 8 nM paclitaxel, the combination of both, or 0.6% V/V PBS as drug vehicle). HUVEC were then seeded onto the Matrigel™ and incubated at 37° C. and 5% CO2 for 16 hours to allow tubule formation. The assays were run in triplicate, and microphotographs were taken using 40× and 20× objectives with an inverted X71 microscope (Olympus). Pictures were also used to count the number of branching points originated by HUVEC cells, as a measure of the degree of angiogenesis, by the Wimasis WimTube software (Wimasis GmbH, Munich, Germany). Statistically significant differences in the number of branching points were analyzed by the Kruskal-Wallis test followed by a Dunns post-test, to compare all the treatment groups with each other.
Gal-3C blocked OC cell angiogenic potential and αvβ3 integrin clustering. To study the effects of Gal-3C on OC cells ability to induce the formation of new vessels, an in vitro tubule formation assay was carried out using HUVEC cells stimulated with the conditioned media (20% V/V) of OC cells pre-treated for 48 hours with 10 μg/mL Gal-3C, 8 nM paclitaxel, or a combination of both treatments. […] The amount of branching points was also calculated through the Wimasis WimTube software, as described hereinabove. […] A parallel set of experiments were performed using a mixture consisting of the 48-hour conditioned media of each untreated OC cell line (20% V/V) supplemented with 10 μg/mL Gal-3C, 8 nM paclitaxel, or 10 μg/mL Gal-3C+8 nM paclitaxel. […] This outcome on in vitro angiogenesis was correlated with an evident reduction in the clusters of αvβ3 integrins (FIG. 7).

Row | Molecule | viability reduced (percentage of control cells) (Pt1) [%] | toxicity profile [1] | concentration from which cell viability is significantly reduced ([2]; 0, 2, 10, 20 μg/mL tested) [µg/mL] | cell viability, comparison between treatments ([2]; 10 μg/mL Gal-3C, 8 nM paclitaxel or combined) | αvβ3 integrin clusters in HUVEC cells [3] | viability reduced (percentage of control cells) (SKOV-3) [%] | viability reduced (percentage of control cells) (Pt2) [%] | OC cell migration (OC cells [4]) | viability reduced (percentage of control cells) (ID8) [%] | phosphorylated IKKB, IKK levels (Akt/NF-κB pathway; 10 μg/mL Gal-3C alone, compared with controls) | levels of phosphorylated, active NF-κB (P-p65) (Akt/NF-κB pathway) | phospho-Akt (P-Akt) levels (Akt/NF-κB pathway) | HUVEC migration induced by conditioned media of treated OC cells (HUVEC cells [5]) | HUVEC chemotaxis, direct effect of residual drugs (HUVEC cells [5]) | OC cell invasion (OC cells [6]) | formation of vessel-like structures by HUVEC cells (HUVEC cells [7]) | average number of branching points (HUVEC cells [7]) | tubule formation, direct effect of drugs (HUVEC cells [7])
1 | Gal-3C: truncated, dominant-negative form of Galectin-3; last 143 carboxy-terminal amino acid residues of human Galectin-3 (SEQ ID NO. 4) | 29 | very low toxicity profile | ≥ 10 | more effective in reducing cell viability compared with paclitaxel in all cell lines except SKOV-3 | completely abrogated | 25 | 57 | significantly reduced | 50 | reduction | reduction | reduction | significant effect | did not significantly affect HUVEC chemotaxis | significantly reduced | significantly reduce | significantly reduced | unable to significantly affect tubule formation
2 | CC(=O)O[C@H]1C(=O)[C@@]2(C)[C@H]([C@H](OC(=O)c3ccccc3)[C@]3(O)C[C@H](OC(=O)[C@H](O)[C@@H](NC(=O)c4ccccc4)c4ccccc4)C(C)=C1C3(C)C)[C@]1(OC(C)=O)CO[C@@H]1C[C@@H]2O [paclitaxel, Paclitaxel, reference compound] |  |  |  |  | still preserved the ability to induce αvβ3 integrin cluster in HUVEC cells (even if at a lower extent compared with control) |  |  |  |  |  | increased | increased | unable to reduce the production of HUVEC chemotactic factors | did not significantly affect HUVEC chemotaxis |  | significantly reduce | significantly reduced | unable to significantly affect tubule formation

— US20150157691A1, “Galectin-3 to Treat Ovarian Cancer” (Texas Tech University System, priority 2013, published 2015)
